From US8044057B2, “Methods for suppressing an immune response or treating a proliferative disorder” (The United States of America as represented by the …, priority 2003, dated 2011)

Columns and labels:
Assay type in all cases: cell-based, human
[1] = system: AKT; experiment: Western blot of phospho-Akt S473 in PASM cells
Experimental: FIGS. 4A-4D are bar graphs and digital images showing that LY303511 inhibits serum-stimulated phosphorylation of S6K and Akt (FIGS. 4A and 4B), as well as proliferation in PASM cells (FIGS. 4C and 4D). After incubation in serum-free medium for 24 hours, PASM cells were incubated without or with 100 μM LY303511, rapamycin, 200 ng/ml, or 200 nM wortmannin (FIG. 4A), or 0-100 μM LY303511 (FIG. 4B), for 1 hour before the addition of 10% FBS for 30 min and preparation of cell lysates. Equal amounts of protein (20 μg/gel) were separated by SDS-PAGE and transferred to nitrocellulose membranes before immunodetection of phospho-p70 S6 kinase T389 (pS6K) orphospho-Akt S473 (pAkt) by Western blot. Data are from one experiment representative of five.
HPASM cells were purchased from Clonetics and passaged according to the manufacturer's instructions. Cells were plated in 100 mm dishes, and allowed to grow to near confluence before serum starvation for 24 hours. […] Cells were homogenized and the indicated proteins were detected by Western blot.
(§1) Measurement of protein phosphorylation: A549 cells were incubated in serum-free medium without or with inhibitors for 1 hour, as indicated, before incubation for 30 minutes with a mixture of LPS, 100 μg/ml (Sigma; St. Louis, Mo.) and IFN-γ, 100 U/ml (Roche; Nutley, N.J.). […] Integrated band densities were quantified using Scion Image beta 3b software.

[2] = system: A549 cells; experiment: KI-67 immunostaining in A549 cells; settings: 24 hours
Text: Slides were mounted in solution containing DAPI to stain nuclei. Photos were captured using equal laser intensity and gain.

[3] = system: PASM cells; experiment: BrDU incorporation (in situ ELISA) in PASM cells
Experimental: PASM cells (4,000 per well) were grown in 96-well plates for 24 hours before incubation for 24 hours in medium with (FIG. 4C) or without 10% FBS (FIG. 4D). Cells were then incubated in fresh medium containing 10% FBS, 10 μM BrDU, and 0-100 μM LY303511 without or with rapamycin, 200 or 400 ng/ml, for 24 hours BrDU incorporation was measured by in situ ELISA as per the manufacturer's instructions (BrDU detection kit, Roche). For each experiment, BrDU content of cells incubated with inhibitors was expressed relative to that in cells incubated with 0.1% DMSO control (% control). Mean control (=100%) absorbance for each experiment using cells from different donors was 0.22±0.06 and 0.24±0.06 for FIG. 4C and FIG. 4D, respectively (=100%). Data are means of BrDU values ±SEM from 3 experiments with assays in sextuplet. *p<0.05 vs. DMSO control, or †p<0.05 vs. 10 μM LY303511, by Student's t-test.
Measurement of cell proliferation:. Cell proliferation, or DNA synthesis, was estimated using an in situ 5-bromo-2-deoxy-uridine (BrDU) detection kit as per the manufacturer's instructions (Roche Diagnostics; Nutley, N.J.). […] Cells were fixed, and BrDU was detected using a peroxidase-conjugated anti-BrDU antibody. The measured absorbance data in cells treated with inhibitors were normalized to those treated with DMSO control (% control).

[4] = system: mTOR; experiment: Western blot of phospho-mTOR S2481 (autophosphorylation) in A549 cells; settings: 0-100 μM LY303511, LPS/IFN-γ
Experimental: Cells were reacted with 0-100 μM LY303511 for 1 hour before addition of L/I for 30 min and preparation of cell lysates. Samples (70 μg) of proteins were separated by SDS-PAGE and transferred to nitrocellulose membranes before immunodetection of phospho-p70 S6 kinase T389 (pS6K), phospho-Akt S473 (pAkt), total p70 S6 kinase (S6K), total Akt (Akt), phospho-mTOR S2481 (pmTOR), or total mTOR (mTOR) by Western blot. Positions of protein standards (kDa) are on the right. For the bar graph and digital images shown in FIG. 1D, band density measurements were also represented graphically. Integrated band densities for pmTOR were normalized to those of total mTOR. […]
A549 cells were treated without or with 100 mcM LY303511, 200 ng/ml rapamycin, or 50 nM wortmannin in serum free media for 1 hour before addition of E. coli lipopolysaccharide (LPS), 1000 mcglml and interferon (IFN)-γ, 100 U/ml (LPS/IFN-γ or “L/I”). Cells were homogenized and the indicated proteins (see Table 1) were detected by Western blot. […]
as §1

O=c1cc(N2CCNCC2)oc2c(-c3ccccc3)cccc12 [LY303511, 2-(4-piperazinyl)-8-phenyl-4H-1-benzopyran-4-one]
IC50 ([1]; Homo sapiens, pulmonary artery smooth muscle cells, densitometry, read-out: IC50 for inhibition of Akt phosphorylation): 10 to 100 µM | phosphorylation of AKT ([1]; PASM cells, 10% FBS for 30 minutes): inhibits phosphorylation of AKT, albeit to a lesser extent than phosphorylation of p70 S6 kinase | whole cell KI-67 levels [2]: significant decrease in whole cell KI-67 levels | proliferation (BrDu incorporation) ([3]; PASM cells in serum-free medium for 24 h before addition of FBS (FIG. 4D), compared with serum pre-incubation): enhanced in the absence of serum | proliferation (BrDu incorporation) ([3]; PASM cells incubated with serum before addition of inhibitors (FIG. 4C)): inhibited in concentration-dependent fashion | autophosphorylation of mTOR (S2481) [4]: inhibits autophosphorylation of mTOR in a concentration-dependent fashion
